From patent US9617221B2, “Kinase modulators for the treatment of cancer” (Synovo GmbH, priority 2010, dated 2017)

Legend:
Assay type in all cases: cell-based, mice
IL-10 [1] = experiment: IL-10 production by LPS-stimulated murine peritoneal macrophage (ELISA); conditions: for IL-10 by ELISA, % of solvent treated control: murine peritoneal macrophage; for IL-10 (LPS, Macrophages), amount of cytokine: 10 μM, 72 h
Procedure: (§1) Peritoneal macrophage or splenocytes (lymphocytes and macrophage) were harvested from donor mice using standard techniques. Cells were placed in culture and stimulated with either LPS (10 μg/mL) or concanavalin A 5 μg/mL (Sigma Chemical Co., St Louis, Mo.) in RPMI-1640 medium supplemented with antibiotics, […] 2-mercaptoethanol, 10 mm HEPES buffer and 10% fetal calf serum (FCS) (see Holan et al., 1985) to stimulate macrophage and T-cells respectively. Compounds were added from DMSO stock solutions to a final concentration of 50 μM or less with DMSO not exceeding 1% of total volume. After 72 h, cell supernatant was recovered and the cytokine levels were estimated by ELISA. The effect of compounds on cytokine production was recorded as follows: […]

IL-10 [2] = experiment: IL-10 production by ConA-stimulated T cells; conditions: 10 μM, 72 h
Procedure: as §1

T cells = experiment: Proliferation of Con A-stimulated T cells; conditions: 10 μM
Procedure: as §1

IL-2 = IL-2 production by ConA-stimulated T cells; conditions: 10 μM, 72 h
Procedure: as §1

IL-6 = IL-6 production by LPS-stimulated macrophages; conditions: 10 μM, 72 h
Procedure: as §1

NO = NO production by LPS-stimulated macrophages; conditions: 10 μM, 72 h
IFN-g = IFN-g production by ConA-stimulated T cells; conditions: 10 μM, 72 h
Procedure: as §1

B cells = experiment: Proliferation of LPS-stimulated B cells; conditions: 10 μM

Compound	IL-10 by ELISA, % of solvent treated control (IL-10 [1]; 1.25 μM inhibitor in medium)	IL-10 by ELISA, % of solvent treated control (IL-10 [1]; 5 μM inhibitor in medium)	IL-10 by ELISA, % of solvent treated control (IL-10 [1]; 20 μM inhibitor in medium)	IL-10 (ConA, T cells), amount of cytokine (IL-10 [2])	Proliferation (Con A, T cells) (T cells)	IL-2 (ConA, T cells), amount of cytokine (IL-2)	IL-6 (LPS, Macrophages), amount of cytokine (IL-6)	NO (LPS, Macrophages), % of control treated with solvent alone (NO)	IL-10 by ELISA, % of solvent treated control (IL-10 [1]; 2 μM inhibitor in medium)	IL-10 by ELISA, % of solvent treated control (IL-10 [1]; 10 μM inhibitor in medium)	IL-10 (LPS, Macrophages), amount of cytokine (IL-10 [1])	IL-10 by ELISA, % of solvent treated control (IL-10 [1]; 50 μM inhibitor in medium)	IFN-g (ConA, T cells), amount of cytokine (IFN-g)	Proliferation (LPS, B cells) (B cells)
CCOC(=O)CCCN(C)C1CC(C)OC(OC2C(C)C(OC3CC(C)(OC)C(O)C(C)O3)C(C)C(=O)OC(CC)C(C)(O)C(O)C(C)N(C)CC(C)CC2(C)O)C1O (stereo not shown) [Compound 27, 4-({2-[2-Ethyl-3,4,10-trihydroxy-13-(5-hydroxy-4-methoxy-4,6-dimethyl-tetrahydro-pyran-2-yloxy)-3,5,6,8,10,12,14-heptamethyl-15-oxo-1-oxa-6-aza-cyclopentadec-11-yloxy]-3-hydroxy-6-methyl-tetrahydro-pyran-4-yl}-methyl-amino)-butyric acid ethyl ester]	132 % of solvent treated control	106 % of solvent treated control	17 % of solvent treated control											
CCC1OC(=O)C(C)C(OC2CC(C)(OC)C(O)C(C)O2)C(C)C(OC2OC(C)CC(N(C)CCCC(=O)OCC3CO3)C2O)C(C)(O)CC(C)CN(C)C(C)C(O)C1(C)O (stereo not shown) [Compound 29]	110 % of solvent treated control	114 % of solvent treated control	106 % of solvent treated control											
CCC1OC(=O)C(C)C(OC2CC(C)(OC)C(O)C(C)O2)C(C)C(OC2OC(C)CC(N(C)CCCCCC(=O)OCCO)C2O)C(C)(O)CC(C)CN(C)C(C)C(O)C1(C)O (stereo not shown) [Compound 36]				79 % of control treated with solvent alone	199 % of control treated with solvent alone	96 % of control treated with solvent alone	91 % of control treated with solvent alone	100 % of control treated with solvent alone	88 % of solvent treated control	116 % of solvent treated control	116 % of control treated with solvent alone	0 % of solvent treated control	99 % of control treated with solvent alone	3 % of control treated with solvent alone
CC[C@H]1OC(=O)[C@H](C)[C@@H](O[C@H]2C[C@@](C)(OC)[C@@H](O)[C@H](C)O2)[C@H](C)[C@@H](O[C@@H]2O[C@H](C)C[C@H](N(C)CCCC(=O)OCC(O)CSc3nc(-c4ccc(F)cc4)c(-c4ccnc(NC(C)C(C)C)c4)[nH]3)[C@H]2O)[C@](C)(O)C[C@@H](C)CN(C)[C@H](C)[C@@H](O)[C@]1(C)O (stereo partly shown) [Compound 43a]				0 % of control treated with solvent alone	0 % of control treated with solvent alone	0 % of control treated with solvent alone	15 % of control treated with solvent alone	1 % of control treated with solvent alone	16 % of solvent treated control	2 % of solvent treated control	2 % of control treated with solvent alone	5 % of solvent treated control	3 % of control treated with solvent alone	2 % of control treated with solvent alone
